Source: PMC8159961, “Exploring protein hotspots by optimized fragment pharmacophores” (Nature Communications, 2021)
Several values for one entry are separate records, joined by “and”; a condition that tells them apart may be missing. Equal values may be shown once. Entries after “also recorded” stand apart in the source; their conditions may differ. Read-outs that look alike come from different tables or passages of the source.

Key:
[1] = target: T1, human 5-HT6 receptor (Homo sapiens, UniProt P50406); assay: GPCR radioligand binding assay, [3H]-LSD displacement, HEK293 membranes
T1 construct: expressed in transfected cells
T1 sequence (P50406 whole entry): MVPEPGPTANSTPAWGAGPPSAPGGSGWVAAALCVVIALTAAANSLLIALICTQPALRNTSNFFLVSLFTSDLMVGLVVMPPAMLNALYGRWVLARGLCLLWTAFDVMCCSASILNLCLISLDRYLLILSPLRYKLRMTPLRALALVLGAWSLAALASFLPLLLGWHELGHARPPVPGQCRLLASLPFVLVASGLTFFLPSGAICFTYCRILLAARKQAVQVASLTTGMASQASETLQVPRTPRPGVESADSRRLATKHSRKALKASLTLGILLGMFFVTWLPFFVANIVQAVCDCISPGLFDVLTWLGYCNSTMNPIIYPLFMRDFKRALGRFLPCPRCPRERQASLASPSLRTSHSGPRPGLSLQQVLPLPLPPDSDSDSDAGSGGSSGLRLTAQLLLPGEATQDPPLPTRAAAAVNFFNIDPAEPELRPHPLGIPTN

[2] = target: T2, human thrombin (Homo sapiens, UniProt P00734); assay: Protease inhibitory assay, chromogenic substrate S-2238; assay type: biochemical; details: plate layout, label = plate position; Cheng-Prusoff, Km 2.6 µM; read-out: Thrombin Ki
T2 construct: human thrombin; purchased Sigma-Aldrich

[3] = test system: SARS-CoV-2; assay: microbe, parasite or virus in culture; assay type: cell-based
[4] = target: T3, SARS-CoV-2 NSP3 macrodomain (Severe acute respiratory syndrome coronavirus 2, UniProt P0DTD1); assay: X-ray fragment screening (XChem, crystal soaking); assay type: binding
[5] = target: T3, SARS-CoV-2 NSP3 macrodomain; assay: NSP3 macrodomain HTRF assay, displacement of ADP-ribose-conjugated biotin peptide; assay type: binding
[6] = target: T4, human 5-HT1A receptor (Homo sapiens, UniProt P08908); assay: GPCR radioligand binding assay, [3H]-8-OH-DPAT displacement, HEK293 membranes
T4 construct: expressed in transfected cells
T4 sequence (P08908 1-422): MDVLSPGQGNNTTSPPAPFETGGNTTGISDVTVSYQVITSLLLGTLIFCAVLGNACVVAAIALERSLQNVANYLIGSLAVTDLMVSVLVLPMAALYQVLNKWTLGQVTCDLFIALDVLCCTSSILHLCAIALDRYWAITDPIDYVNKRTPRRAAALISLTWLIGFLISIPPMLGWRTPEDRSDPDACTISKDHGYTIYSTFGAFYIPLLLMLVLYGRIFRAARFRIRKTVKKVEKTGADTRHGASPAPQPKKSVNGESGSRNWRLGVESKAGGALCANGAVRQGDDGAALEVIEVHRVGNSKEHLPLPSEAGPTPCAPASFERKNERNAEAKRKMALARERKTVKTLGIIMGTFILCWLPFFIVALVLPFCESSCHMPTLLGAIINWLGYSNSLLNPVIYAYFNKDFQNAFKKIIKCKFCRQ

[7] = target: T5, human 5-HT7b receptor (Homo sapiens, UniProt P34969); assay: GPCR radioligand binding assay, [3H]-5-CT displacement, HEK293 membranes
T5 construct: expressed in transfected cells
T5 sequence (P34969 1-432): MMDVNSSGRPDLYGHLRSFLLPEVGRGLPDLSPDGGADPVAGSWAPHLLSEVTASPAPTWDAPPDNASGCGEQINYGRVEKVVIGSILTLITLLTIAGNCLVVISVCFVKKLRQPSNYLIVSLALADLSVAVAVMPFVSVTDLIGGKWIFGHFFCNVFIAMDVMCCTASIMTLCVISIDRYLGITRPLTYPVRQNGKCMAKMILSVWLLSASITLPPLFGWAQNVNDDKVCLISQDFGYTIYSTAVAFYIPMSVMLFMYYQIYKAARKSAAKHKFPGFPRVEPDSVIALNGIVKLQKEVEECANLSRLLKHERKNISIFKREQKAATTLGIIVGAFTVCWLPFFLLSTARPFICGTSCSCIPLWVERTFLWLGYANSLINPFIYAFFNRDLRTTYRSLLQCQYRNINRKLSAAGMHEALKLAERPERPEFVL

[8] = target: T6, recombinant SETD2 (Homo sapiens, UniProt Q9BYW2); assay: SETD2 Chemiluminescence assay (H3K36 tri-methylation); assay type: biochemical; details: for SETD2 signal, blank corrected, normalized to positive ctrl: internal control
T6 construct: purchased BPS Bioscience 52060
T6 sequence (Q9BYW2 1418-1714 limits assumed): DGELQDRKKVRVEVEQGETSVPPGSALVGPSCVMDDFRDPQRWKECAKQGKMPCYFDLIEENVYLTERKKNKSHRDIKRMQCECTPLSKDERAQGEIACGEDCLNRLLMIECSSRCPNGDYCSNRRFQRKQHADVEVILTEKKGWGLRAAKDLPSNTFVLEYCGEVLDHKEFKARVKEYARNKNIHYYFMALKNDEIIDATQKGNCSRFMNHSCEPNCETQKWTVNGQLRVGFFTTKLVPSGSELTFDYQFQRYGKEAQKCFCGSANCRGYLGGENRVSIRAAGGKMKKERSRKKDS

[9] = test system: SETD2; details: cited from earlier work
[10] = test system: COVID-19; parameters: method as in PMID 33264556; details: trial discontinued in July 2020; cited from earlier work

NC(=O)N1CCC(C(=O)O)CC1 [SX048]
inhibition at 10 µM ([1]; 10 µM, read-out: 5-HT6 % Inhibition by plate position): 47%
inhibition at 10 µM ([1]; 5-HT6, average of exp_1 and exp_2, read-out: %inh 5-HT6 average): 47%
inhibition at 10 µM ([1]; 5-HT6, average, values below 0 and above 100% were set as 0 and 100, read-out: %inh 5-HT6 corrected*): 47%
inhibition at 10 µM ([1]; 5-HT6, replicate exp_1, read-out: %inh 5-HT6 exp_1): 56%
inhibition at 10 µM ([1]; 5-HT6, replicate exp_2, read-out: %inh 5-HT6 exp_2): 38%
Ki [2]: 0.301 mM
viral copy numbers normalized to the control (untreated infected cells) ([3]; 10 uM, replicates): 1.6898 and 2.197 and 1.352
Inhibition (%) of viral copy numbers ([3]; 100 uM, replicates): 8.992%
viral copy numbers normalized to the control (untreated infected cells) ([3]; 100 uM, replicates): 1.075 and 1.992 and 0.9101
Inhibition (%) of viral copy numbers ([3]; 250 uM, replicates): 15.88% and 50.18% and 14.44%
viral copy numbers normalized to the control (untreated infected cells) ([3]; 250 uM, replicates): 0.8412 and 0.4982 and 0.8556
Inhibition (%) of viral copy numbers ([3]; 500 uM, replicates): 81.12% and 43.68% and 14.44%
viral copy numbers normalized to the control (untreated infected cells) ([3]; 500 uM, replicates): 0.1888 and 0.5632 and 0.8556
Inhibition (%) of viral copy numbers ([3]; 750 uM, replicates): 51.99% and 82.49% and 35.02%
viral copy numbers normalized to the control (untreated infected cells) ([3]; 750 uM, replicates): 0.4801 and 0.1751 and 0.6498
Inhibition (%) of viral copy numbers ([3]; 1000 uM, replicates): 41.84% and 41.07%
viral copy numbers normalized to the control (untreated infected cells) ([3]; 1000 uM, replicates): 0.5067 and 0.5816 and 0.5893
inhibition at 10 µM ([3]; Severe acute respiratory syndrome coronavirus 2, Vero C1008, 10 uM, replicates, read-out: Inhibition (%) of viral copy numbers): 0%
inhibition at 1000 µM ([3]; Severe acute respiratory syndrome coronavirus 2, Vero C1008, 1000 uM, replicates, read-out: Inhibition (%) of viral copy numbers): 49.3%
antiviral activity in the cellular assay (in words) ([3]; infected Vero E6 cells): high micromolar range; also recorded: Significant antiviral activities
X-ray screen result, binding site [4]: identified in the active site
% SARS-CoV-2 macrodomain inhibition ([5]; 98 µM, replicates): 4.2%
inhibition at 98 µM ([5]; 98 µM, replicates): 5.1%
% SARS-CoV-2 macrodomain inhibition ([5]; 195 µM, replicates): 3.7% and 10.3%
% SARS-CoV-2 macrodomain inhibition ([5]; 391 µM, replicates): 5.0% and 0.65%
% SARS-CoV-2 macrodomain inhibition ([5]; 781 µM, replicates): 4.2% and 0.6%
% SARS-CoV-2 macrodomain inhibition ([5]; 1563 µM, replicates): 5.8%
inhibition at 1563 µM ([5]; 1563 µM, replicates): 6.6%
% SARS-CoV-2 macrodomain inhibition ([5]; 3125 µM, replicates): 6.5% and 15.4%
% SARS-CoV-2 macrodomain inhibition ([5]; 6250 µM, replicates): 80.4%
inhibition at 6250 µM ([5]; 6250 µM, replicates): 84.7%
% SARS-CoV-2 macrodomain inhibition ([5]; 12500 µM, replicates): 102.4%
inhibition at 12500 µM ([5]; 12500 µM, replicates): 102%
NSP3 inhibition (in words) ([5]; HTRF assay, at 5 mM concentration): significant
IC50 ([5]; IC50, SARS-CoV-2 macrodomain inhibition): 5.54 mM
IC50 ([5]; NSP3 IC50, HTRF assay): 5.5 mM
inhibition at 10 µM ([6]; 10 µM, read-out: 5-HT1A % Inhibition by plate position): 0.751%
inhibition at 10 µM ([6]; 5-HT1A, average of exp_1 and exp_2, read-out: %inh 5-HT1A average): 0.751%
inhibition at 10 µM ([6]; 5-HT1A, average, values below 0 and above 100% were set as 0 and 100, read-out: %inh 5-HT1A corrected*): 0.751%
inhibition at 10 µM ([6]; 5-HT1A, replicate exp_1, read-out: %inh 5-HT1A exp_1): 1.5%
inhibition at 10 µM ([6]; 5-HT1A, replicate exp_2, read-out: %inh 5-HT1A exp_2): 0%
inhibition at 10 µM ([7]; 10 µM, read-out: 5-HT7 % Inhibition by plate position): 0%
inhibition at 10 µM ([7]; 5-HT7, average of exp_1 and exp_2, read-out: %inh 5-HT7 average): -6.41%
inhibition at 10 µM ([7]; 5-HT7, average, values below 0 and above 100% were set as 0 and 100, read-out: %inh 5-HT7 corrected*): 0%
inhibition at 10 µM ([7]; 5-HT7, replicate exp_1, read-out: %inh 5-HT7 exp_1): -8%
inhibition at 10 µM ([7]; 5-HT7, replicate exp_2, read-out: %inh 5-HT7 exp_2): -4.44%

Nc1ncnc2c1ncn2[C@@H]1O[C@H](C[C@@H](N)CC[C@H](N)C(=O)O)[C@@H](O)[C@H]1O [Sinefungin, reference compound]
inhibition of SETD2 activity (control, in words) ([8]; 200 µM Sinefungin): complete inhibition
SETD2 signal, blank corrected, normalized to positive ctrl ([8]; 200 µM): 0.074
SETD2 signal, blank corrected, normalized to positive ctrl ([8]; 800 µM): 0.0136
activity as inhibitor of SETD2 (in words) [9]: moderately active

lopinavir/ritonavir
clinical trial outcome against COVID-19 [10]: ineffectiveness
